In article PMC12508057, “Discovery of ETI41 and ETI60: novel selective endosomal Toll-like receptor inhibitors for the treatment of autoimmune diseases” (Experimental & Molecular Medicine, 2025):
Like-named read-outs stand apart in the source and are kept apart here.

Columns and labels:
Format in all cases: cell-based
hTLR9 = target: T1, hTLR9 (Homo sapiens, UniProt Q9NR96); assay: TLR9 inhibition, ODN2395-induced hTNFα in Daudi
T1 construct: human B lymphoblasts (Daudi cells); endogenous in cells; host or cells: Daudi
Method: (§1) RAW 264.7 and differentiated THP-1 cells were seeded into 96-well plates at 2 × 10^4 cells per well, while Daudi cells were seeded at 5 × 10^4 cells per well. After stabilization for 30 min, cells were stimulated with specific TLR agonists for 4 or 24 h. Supernatants were diluted and transferred to precoated ELISA plates to measure TNF-α secretion using kits from Invitrogen. Optical absorbance was measured using a BioTek Synergy HTX multimode microplate reader, and data were interpolated using BioTek Gen5 software.
(§2) One-tailed paired Student’s t-tests were performed using Microsoft Excel (Microsoft). Semi-logarithmic conversions and nonregression curve analyses for calculating 50% lethal concentration (LC50) and 50% inhibitory concentration (IC50) values were conducted using GraphPad Prism 7.0 (GraphPad). The therapeutic index was calculated as […]. Animal experimental results are expressed as mean ± standard deviation and analyzed using SPSS v.20 (IBM SPSS Statistics). Homogeneity of variance was assessed using Levene’s test. […]

TLR7 = target: T2, TLR7 (Mus musculus, UniProt P58681); assay: TLR7 inhibition, TNF-α secretion (ELISA) in RAW 264.7; conditions: for TLR7 TI value: therapeutic index, RAW 264.7
T2 construct: endogenous in cells; host or cells: RAW 264.7
T2 sequence (P58681 27-1050): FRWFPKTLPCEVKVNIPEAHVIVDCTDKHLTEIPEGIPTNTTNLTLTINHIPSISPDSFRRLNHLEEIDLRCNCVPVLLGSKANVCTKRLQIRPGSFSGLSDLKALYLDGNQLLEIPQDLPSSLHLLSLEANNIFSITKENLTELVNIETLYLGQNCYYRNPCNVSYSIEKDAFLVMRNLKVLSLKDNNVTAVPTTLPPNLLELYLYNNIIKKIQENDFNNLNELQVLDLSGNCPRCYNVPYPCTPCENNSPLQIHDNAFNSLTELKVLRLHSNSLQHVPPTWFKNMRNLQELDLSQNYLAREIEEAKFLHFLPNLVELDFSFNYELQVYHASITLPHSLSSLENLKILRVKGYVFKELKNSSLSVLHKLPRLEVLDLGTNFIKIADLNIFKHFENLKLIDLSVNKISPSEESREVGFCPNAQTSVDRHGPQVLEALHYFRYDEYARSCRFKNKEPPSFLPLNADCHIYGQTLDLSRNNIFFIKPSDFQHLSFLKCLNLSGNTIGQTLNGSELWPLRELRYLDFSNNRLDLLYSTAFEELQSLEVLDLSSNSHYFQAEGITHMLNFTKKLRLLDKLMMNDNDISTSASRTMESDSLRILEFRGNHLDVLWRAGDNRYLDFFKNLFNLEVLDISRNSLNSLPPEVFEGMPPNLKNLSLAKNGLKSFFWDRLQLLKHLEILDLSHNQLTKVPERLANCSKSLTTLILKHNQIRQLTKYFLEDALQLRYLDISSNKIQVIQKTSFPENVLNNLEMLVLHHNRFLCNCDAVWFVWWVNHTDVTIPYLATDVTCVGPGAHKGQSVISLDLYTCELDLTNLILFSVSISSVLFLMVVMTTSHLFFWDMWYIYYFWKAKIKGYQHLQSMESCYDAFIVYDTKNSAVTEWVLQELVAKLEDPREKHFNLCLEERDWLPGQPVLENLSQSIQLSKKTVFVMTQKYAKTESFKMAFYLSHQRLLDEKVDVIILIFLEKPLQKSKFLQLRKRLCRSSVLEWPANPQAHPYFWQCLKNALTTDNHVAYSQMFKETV
Method: as §1
One-tailed paired Student’s t-tests were performed using Microsoft Excel (Microsoft). Semi-logarithmic conversions and nonregression curve analyses for calculating 50% lethal concentration (LC50) and 50% inhibitory concentration (IC50) values were conducted using GraphPad Prism 7.0 (GraphPad). The therapeutic index was calculated as […]. Animal experimental results are expressed as mean ± standard deviation and analyzed using SPSS v.20 (IBM SPSS Statistics). Homogeneity of variance was assessed using Levene’s test.
The cells were activated with agonistic ligands: […], TLR3 (poly I:C, 2 μg/ml, 24 h), TLR4 (LPS, 10 or 100 ng/ml, 4 h), TLR5 (FLA-ST, 500 ng/ml, 4 h), TLR7 (ORN06/LyoVec, 2 μg/ml, 24 h; and IMQ, 1 μg/ml, 4 h), TLR8 (TL8-506, 2 μg/ml, 24 h) and TLR9 (ODN2395, 1 μM, 4 h) at various concentrations in RAW 264.7 cells, human Daudi cells and THP-1 cells. Data are from at least three independent experiments (n = 3) and statistical differences between the induced case and other cases were analyzed and verified using a one-tailed Student’s t-test (*P < 0.05, **P < 0.01, ***P < 0.001).

mTLR3 = target: T3, mTLR3 (Mus musculus, UniProt Q99MB1); assay: TLR3 inhibition, poly I:C-induced mTNFα in RAW 264.7
T3 construct: reduction in TNF-α secretion in mouse RAW 264.7 cells; endogenous in cells; host or cells: RAW 264.7
Method: as §1, §2

T1 sequence (Q9NR96 26-1032): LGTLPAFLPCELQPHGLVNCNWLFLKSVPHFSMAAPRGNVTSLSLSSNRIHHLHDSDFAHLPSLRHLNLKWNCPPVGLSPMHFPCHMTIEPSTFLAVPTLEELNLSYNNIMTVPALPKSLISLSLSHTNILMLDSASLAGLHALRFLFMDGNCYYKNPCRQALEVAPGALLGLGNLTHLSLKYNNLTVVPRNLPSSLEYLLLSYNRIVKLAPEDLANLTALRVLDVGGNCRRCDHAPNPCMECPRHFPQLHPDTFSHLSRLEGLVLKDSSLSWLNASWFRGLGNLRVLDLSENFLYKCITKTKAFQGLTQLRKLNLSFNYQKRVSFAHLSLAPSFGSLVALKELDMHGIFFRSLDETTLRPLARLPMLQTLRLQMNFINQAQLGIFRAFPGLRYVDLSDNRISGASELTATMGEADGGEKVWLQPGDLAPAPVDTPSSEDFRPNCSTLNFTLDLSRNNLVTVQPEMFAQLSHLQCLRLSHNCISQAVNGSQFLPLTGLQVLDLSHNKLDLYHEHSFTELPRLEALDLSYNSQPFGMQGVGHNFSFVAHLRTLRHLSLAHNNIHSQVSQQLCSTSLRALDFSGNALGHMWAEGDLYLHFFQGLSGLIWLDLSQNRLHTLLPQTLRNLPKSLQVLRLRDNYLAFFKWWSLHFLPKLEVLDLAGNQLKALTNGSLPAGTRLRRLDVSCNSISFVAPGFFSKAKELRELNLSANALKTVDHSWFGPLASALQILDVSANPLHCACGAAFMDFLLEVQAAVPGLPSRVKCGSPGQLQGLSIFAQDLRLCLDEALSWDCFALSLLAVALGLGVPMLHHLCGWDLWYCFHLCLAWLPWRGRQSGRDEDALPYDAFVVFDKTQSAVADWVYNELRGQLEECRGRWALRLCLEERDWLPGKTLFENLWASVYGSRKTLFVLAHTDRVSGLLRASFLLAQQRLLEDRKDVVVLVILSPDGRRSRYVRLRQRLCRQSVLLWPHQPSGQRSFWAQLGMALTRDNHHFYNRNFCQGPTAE
T3 sequence (Q99MB1 26-905): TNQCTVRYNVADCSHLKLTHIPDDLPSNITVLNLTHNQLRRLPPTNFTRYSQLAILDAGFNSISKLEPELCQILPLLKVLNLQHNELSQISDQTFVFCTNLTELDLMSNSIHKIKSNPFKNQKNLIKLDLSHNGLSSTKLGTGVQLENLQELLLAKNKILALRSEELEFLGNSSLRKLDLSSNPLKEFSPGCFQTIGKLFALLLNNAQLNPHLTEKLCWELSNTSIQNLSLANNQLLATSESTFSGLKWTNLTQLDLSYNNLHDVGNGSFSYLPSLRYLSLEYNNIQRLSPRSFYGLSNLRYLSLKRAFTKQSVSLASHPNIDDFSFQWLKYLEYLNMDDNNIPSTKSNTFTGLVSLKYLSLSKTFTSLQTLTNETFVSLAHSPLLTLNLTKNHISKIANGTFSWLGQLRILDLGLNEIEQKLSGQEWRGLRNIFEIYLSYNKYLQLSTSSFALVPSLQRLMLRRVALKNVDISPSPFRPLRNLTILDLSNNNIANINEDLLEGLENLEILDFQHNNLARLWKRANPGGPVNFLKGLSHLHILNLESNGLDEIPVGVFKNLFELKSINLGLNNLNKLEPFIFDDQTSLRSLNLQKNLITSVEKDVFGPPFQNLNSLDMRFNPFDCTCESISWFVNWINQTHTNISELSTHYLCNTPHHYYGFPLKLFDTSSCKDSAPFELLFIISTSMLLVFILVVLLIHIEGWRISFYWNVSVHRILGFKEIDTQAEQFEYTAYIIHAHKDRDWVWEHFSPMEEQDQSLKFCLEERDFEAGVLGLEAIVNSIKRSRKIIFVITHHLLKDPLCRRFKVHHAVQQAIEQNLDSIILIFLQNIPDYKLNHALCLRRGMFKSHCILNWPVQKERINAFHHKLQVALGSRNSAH

Q: Which IC50 (hTLR9) does the source give for `Cc1cc2c(N)c3c(nc2n1CCCN(C)C)CCCCCC3` [ETI41] here?
A: 0.0801 µM

Q: What about the IC50 (TLR7) of the same molecule?
A: 0.63 µM

Q: What about the “TLR7 TI value” (TLR7) of the same molecule?
A: 106.63

Q: What about the IC50 (mTLR3) of the same molecule?
A: 0.993 µM

Q: `COc1ccc2c3c(N)c4c(nc3n(CCCN(C)C)c2c1)CCCC4` [ETI60] was tested. Which IC50 (hTLR9) did it give?
A: 0.0209 µM

Q: And the IC50 (TLR7; RAW 264.7 cell line, read-out: TLR7 IC50 (mTNFα))?
A: 0.68 µM

Q: And the “TLR7 TI value” (TLR7)?
A: 75.65

Q: And the IC50 (mTLR3)?
A: 0.372 µM
